This is an account of results in ChEMBL document CHEMBL1641512, “Lyconadins D and E, and complanadine E, new Lycopodium alkaloids from Lycopodium complanatum” (Bioorg Med Chem, 2011).

Active and inactive are the calls of the source. No cut-off for these calls is given here.

Holding throughout (type): cell-based
Experiment [1] deals with Beta-nerve growth factor (Homo sapiens) (UniProt P01138). Put plainly: Induction of neurotrophic factor mRNA expression in human 1321N1 cells at 100 uM by RT-PCR analysis relative to beta-actin mRNA expression.
Chain of Beta-nerve growth factor (Homo sapiens) (P01138 122-241 limits assumed): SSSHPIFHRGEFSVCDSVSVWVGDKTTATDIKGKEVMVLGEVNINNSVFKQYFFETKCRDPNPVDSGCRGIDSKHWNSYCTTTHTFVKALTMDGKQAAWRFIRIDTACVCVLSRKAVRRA
Experiment [2] shares this target. Put plainly: Induction of neurotrophic factor mRNA expression in human 1321N1 cells by RT-PCR analysis.
The target is the same in experiment [3]. Put plainly: Induction of neurotrophic factor mRNA expression in human 1321N1 cells at 100 uM by RT-PCR analysis.

In experiment [1], `C[C@@H]1C[C@H]2Cc3ncc(-c4ccc5c(n4)C(=O)[C@@H]4C[C@@H](C)C[C@]56NCCC[C@H]46)cc3[C@]3(C1)NCCC[C@H]23` registered a fold change (FC) of 2.3.
On to `C[C@@H]1C[C@H]2Cc3ncc(-c4ccc5c(n4)C[C@@H]4C[C@@H](C)C[C@]56NCCC[C@H]46)cc3[C@]3(C1)NCCC[C@H]23`, for which the Activity entry in experiment [2] is “Dose-dependent effect”. The molecule further came in with a fold change (FC) in experiment [1] of 3.9.
As to `C[C@@H]1CC2=C3NC(=O)CC[C@]34C[C@]3(C1)[C@H]2C[C@@H]4CN3C`, in experiment [3], the outcome was inactive.
For the molecule `C[C@@H]1C[C@H]2CC3=C(CC[C@H](c4cnc5c(c4)[C@@]46C[C@H](C)C[C@@H](C5)[C@H]4CCCN6)N3)[C@]3(C1)NCCC[C@H]23`, in experiment [1], the fold change (FC) was 2.4.
The molecule `C[C@@H]1C[C@H]2C[C@H]3N[C@H](c4cnc5c(c4)[C@@]46C[C@H](C)C[C@@H](C5)[C@H]4CCCN6)CC[C@H]3[C@]3(C1)NCCC[C@H]23` gave a fold change (FC) in experiment [1] of 2.8.
On to `C[C@@H]1CC2=C3NC(=O)CC[C@]34C[C@@]3(C1)NC[C@H]4C[C@@H]23`, for which the outcome in experiment [3] was inactive.
